US20010000177A1, “Novel class of thiomorpholino substituted thiazoles” (priority 1999, published 2001)
In brackets after ≈: the same amount, converted by molar mass.

How the values were obtained:
Candida albican = details: Antimicrob. Agents Chemother., (1980), 18(2), 231-9; cited from earlier work
[1] = tested on: Candida and Cryptococcus strains (organism not given); experiment: Broth microdilution antifungal activity, Table II first MIC/MCC column pair; type: cell-based; details: for MIC = Minimum inhibitory concentration (50% Inhibition) / MCC = Minimum cytolytic concentration: first column pair of Table II; for MIC = Minimum inhibitory concentration (50% Inhibition): YNB broth pH 7.0; for MCC = Minimum cytolytic concentration: subculture on SDA plate
Procedure: (§1) Organisms: Three strains of Candida (Candida parpsilosis, Candida tropicalis, Candida albicans-ATCC 36082) as well as Cryptococcus neoformans were used for the initial testing. […] All clinical strains used in this study were blood culture isolates from the Clinical Microbiology Laboratory of Harbor-UCLA Medical Center, Torrance, Calif. The organisms were maintained on Sabourahd Dextrose Agar slants at 4° C. For experimentation, singlet suspensions of each organism were prepared by growing the yeast overnight at 27° C. on a rotating drum in yeast-nitrogen base broth (YNB) with amino acids (Difco, Detroit, Mich.), pH 7.0 with 0.05M morpholinepropanesulfonic acid (MOPS). The suspension was then centrifuged and washed twice with 0.85% NaCl. This was followed by sonication of the washed cell suspension for 4s (Branson Sonifier, model 350, Danbury, Conn.). The singlet blastospores were counted in a hemocytometer and adjusted to the desired concentration in 0.85% NaCl.
(§2) Antifungal Activity: The antifungal activity of the compounds and Fluconazole against the Candida and Cryptococcus strains were determined using a modification of a broth microdilution technique. Test compounds were diluted in DMSO to a 1.0 mg/ml ratio then diluted to 64 μg/ml in YNB broth, pH 7.0 with MOPS (Fluconazole was used as the control). This was to provide a working solution of each compound. Using a 96-well plate, wells 1 and 3 through 12 were prepared with YNB broth, […] dilutions of the compound solution were made in wells 2 through 11 (concentration ranges were 64 to 0.125 μg/ml). Well one served as a sterility control and blank for the spectrophotometric assays. Well twelve served as a growth control. The microtiter plates were inoculated with 10 ul in each of well 2 through 11 (final inoculum size was 10^4 organisms/ml). Inoculated plates were incubated for 48 hrs., at 35° C. The MIC values were determined spectrophotometrically by measuring the absorbance at 420 nm (Automatic Microplate Reader, DuPont Instruments, Wilmington, Del.) after agitation of the plates for 2 min with a vortex-mixer (Vorte-Genie 2 Mixer, Scientific Industries, Inc., Bolemia, N.Y.). […] With the turbidity assay this was defined as the lowest drug concentration at which turbidity in the well was <50% of the control (IC50) Minimal Cytolytic Concentrations (MCC) were determined by subculturing all wells from the 96-well plate onto a Sabourahd Dextrose Agar (SDA) plate and incubated for 1 to 2 days at 35° C. and the viability was checked.

[2] = tested on: Candida and Cryptococcus strains (organism not given); experiment: Broth microdilution antifungal activity, Table II second MIC/MCC column pair; type: cell-based; details: for MIC = Minimum inhibitory concentration (50% Inhibition) / MCC = Minimum cytolytic concentration: second column pair of Table II; for MIC = Minimum inhibitory concentration (50% Inhibition): YNB broth pH 7.0; for MCC = Minimum cytolytic concentration: subculture on SDA plate
Procedure: (§3) Organisms: Three strains of Candida (Candida parpsilosis, Candida tropicalis, Candida albicans-ATCC 36082) as well as Cryptococcus neoformans were used for the initial testing. Active compounds were then tested against fluconazole resistant Candida albicans, Candida krusei, Torulopsis glabrata, and Cryptococcus neoformans along with Sporothrix shenkii and Aspergillus flavus in the secondary round of testing. All clinical strains used in this study were blood culture isolates from the Clinical Microbiology Laboratory of Harbor-UCLA Medical Center, Torrance, Calif. The organisms were maintained on Sabourahd Dextrose Agar slants at 4° C. For experimentation, singlet suspensions of each organism were prepared by growing the yeast overnight at 27° C. on a rotating drum in yeast-nitrogen base broth (YNB) with amino acids (Difco, Detroit, Mich.), pH 7.0 with 0.05M morpholinepropanesulfonic acid (MOPS). The suspension was then centrifuged and washed twice with 0.85% NaCl. This was followed by sonication of the washed cell suspension for 4s (Branson Sonifier, model 350, Danbury, Conn.). The singlet blastospores were counted in a hemocytometer and adjusted to the desired concentration in 0.85% NaCl.
as §2

[3] = tested on: Candida and Cryptococcus strains (organism not given); experiment: Broth microdilution antifungal activity, Table II third MIC/MCC column pair; type: cell-based; details: for MIC = Minimum inhibitory concentration (50% Inhibition): 48 hrs, 35° C., YNB broth pH 7.0; for MCC = Minimum cytolytic concentration: subculture on SDA plate
Procedure: as §3, §2

[4] = tested on: Candida and Cryptococcus strains (organism not given); experiment: Broth microdilution antifungal activity, Table II fourth MIC/MCC column pair; type: cell-based; details: for MIC = Minimum inhibitory concentration (50% Inhibition) / MCC = Minimum cytolytic concentration: fourth column pair of Table II; for MIC = Minimum inhibitory concentration (50% Inhibition): YNB broth pH 7.0; for MCC = Minimum cytolytic concentration: subculture on SDA plate
Procedure: as §1, §2

SMILES	MIC50 (Candida albican) [µg/mL]	MIC = Minimum inhibitory concentration (50% Inhibition) ([1]; 48 hrs, 35° C.) [µg/mL]	MCC = Minimum cytolytic concentration [1] [µg/mL]	MIC = Minimum inhibitory concentration (50% Inhibition) ([2]; 48 hrs, 35° C.) [µg/mL]	MCC = Minimum cytolytic concentration [2] [µg/mL]	MIC = Minimum inhibitory concentration (50% Inhibition) [3] [µg/mL]	MCC = Minimum cytolytic concentration [3] [µg/mL]	MIC = Minimum inhibitory concentration (50% Inhibition) ([4]; 48 hrs, 35° C.) [µg/mL]	MCC = Minimum cytolytic concentration [4] [µg/mL]	MIC ([1]; Candida, 48 h, pH 7, first column pair of Table II, 48 hrs, 35° C., YNB broth pH 7.0, read-out: MIC = Minimum inhibitory concentration (50% Inhibition)) [µg/mL]	MIC ([2]; Candida, 48 h, pH 7, second column pair of Table II, 48 hrs, 35° C., YNB broth pH 7.0, read-out: MIC = Minimum inhibitory concentration (50% Inhibition)) [µg/mL]	MIC ([4]; Candida, 48 h, pH 7, fourth column pair of Table II, 48 hrs, 35° C., YNB broth pH 7.0, read-out: MIC = Minimum inhibitory concentration (50% Inhibition)) [µg/mL]
N=C(N)c1ccc(-c2nnc(-c3ccc(C(=N)N)cc3)o2)cc1	> 60											
COc1ccc(-c2nc(-c3ccc(CN(C)C)cc3)cs2)cc1[N+](=O)[O-] [Example 6l, 2-(4′-methoxy-3′-nitrophenyl)-4-[4″-(dimethylaminomethyl)phenyl]thiazole]		0.5 (≈ 1.35 µM)	1	0.25 (≈ 0.677 µM)	0.5	0.25 (≈ 0.677 µM)	1	0.25 (≈ 0.677 µM)	0.5			
CN(C)Cc1ccc(-c2csc(-c3cccc(C#N)c3)n2)cc1 [Example 6o, 2-(3′-cyanophenyl)-4-[4″-(dimethylaminomethyl)phenyl]thiazole]		2 (≈ 6.26 µM)	4	2 (≈ 6.26 µM)	8	2 (≈ 6.26 µM)	>64	8 (≈ 25 µM)	16			
CCCN(C)Cc1ccc(-c2csc(-c3ccc(C)c([N+](=O)[O-])c3)n2)cc1 [Example 6p, 2-(4′-methyl-3′-nitrophenyl)-4-[4″-(N-methyl-N-propylaminomethyl)-phenyl]thiazole]		1 (≈ 2.62 µM)	8	1 (≈ 2.62 µM)	4	2 (≈ 5.24 µM)	16	1 (≈ 2.62 µM)	4			
COc1ccc(-c2nnc(-c3ccc(CN(C)C)cc3)o2)cc1 [Example 9j, 2-(4′-methoxyphenyl)-5-[4″-(dimethylaminomethyl)phenyl]-1,3,4-oxadiazole]		4 (≈ 12.9 µM)	32	8 (≈ 25.9 µM)	8	0.5 (≈ 1.62 µM)	0.5	0.25 (≈ 0.808 µM)	8			
OC(Cn1cncn1)(Cn1cncn1)c1ccc(F)cc1F [Fluconazole, reference compound]		0.5 (≈ 1.63 µM)	>64	1.0 (≈ 3.27 µM)	>64		>64	0.5 (≈ 1.63 µM)	>64	0.25 (≈ 0.816 µM)	0.5 (≈ 1.63 µM)	1 (≈ 3.27 µM)
